Measurements as given in patent publication US20150203837A1, “FUSION PROTEIN FOR ACTIVATING RTK SIGNAL TRANSMISSION BY MEANS OF LIGHT, AND USE THEREOF” (KOREA ADVANCED INSTITUTE OF SCIENCE AND TECHNOLOGY, priority 2012, published 2015).

Biological target: T1, TrkB (Rattus norvegicus, UniProt Q63604)
T1 construct: PHR domain (1-498 a.a.) of Arabidopsis CRY2 (NM_100320); expressed in transfected cells; host or cells: HeLa; the other entry of the earlier key: CRY2 (Q96524, Cryptochrome-2)
Assay: Light-induced calcium signaling after treatment with TrkB-specific inhibitor (R-GECO imaging)
Type: cell-based
Details: 100 nM K252a; HeLa cells co-transfected with TrkB-PHR-YFP and R-GECO; 488 nm light
Text: The present inventors observed whether sub-RTK signaling was activated by light irradiation after treating a RTK-specific inhibitor in order to confirm that only RTK-specific signaling pathways are activated by light irradiation affecting downstream pathways thereof.
The present inventors used TrkB-PHR-YFP construct prepared in the example 1-1 as an example to investigate the activation of TRK signal transduction. In addition, the present inventors used R-GECO construct (Addgene, plasmid 32444; CMV-R-GECO1) to investigate whether calcium signaling among downstream signaling pathways of RTK is activated by light irradiation. Particularly, HeLa cells were co-transfected with the TrkB-PHR-YFP construct prepared in the example 1-1 and R-GECO construct and cultured in DMEM media containing 10% FBS in the condition of 37° C. and 10% CO2. The cultivated cells were treated with 100 nM of K252a known as a TrkB-specific inhibitor and images taken with a confocal microscope before and after the irradiation with light having 488 nm of wavelength were obtained and analyzed (FIG. 6). As a result, it was observed that there is no difference in the experimental group treated with K252a. On the contrary, the calcium signaling was changed according to light irradiation in the control group.

T1 sequence (Q63604 with tags, fused parts or gaps): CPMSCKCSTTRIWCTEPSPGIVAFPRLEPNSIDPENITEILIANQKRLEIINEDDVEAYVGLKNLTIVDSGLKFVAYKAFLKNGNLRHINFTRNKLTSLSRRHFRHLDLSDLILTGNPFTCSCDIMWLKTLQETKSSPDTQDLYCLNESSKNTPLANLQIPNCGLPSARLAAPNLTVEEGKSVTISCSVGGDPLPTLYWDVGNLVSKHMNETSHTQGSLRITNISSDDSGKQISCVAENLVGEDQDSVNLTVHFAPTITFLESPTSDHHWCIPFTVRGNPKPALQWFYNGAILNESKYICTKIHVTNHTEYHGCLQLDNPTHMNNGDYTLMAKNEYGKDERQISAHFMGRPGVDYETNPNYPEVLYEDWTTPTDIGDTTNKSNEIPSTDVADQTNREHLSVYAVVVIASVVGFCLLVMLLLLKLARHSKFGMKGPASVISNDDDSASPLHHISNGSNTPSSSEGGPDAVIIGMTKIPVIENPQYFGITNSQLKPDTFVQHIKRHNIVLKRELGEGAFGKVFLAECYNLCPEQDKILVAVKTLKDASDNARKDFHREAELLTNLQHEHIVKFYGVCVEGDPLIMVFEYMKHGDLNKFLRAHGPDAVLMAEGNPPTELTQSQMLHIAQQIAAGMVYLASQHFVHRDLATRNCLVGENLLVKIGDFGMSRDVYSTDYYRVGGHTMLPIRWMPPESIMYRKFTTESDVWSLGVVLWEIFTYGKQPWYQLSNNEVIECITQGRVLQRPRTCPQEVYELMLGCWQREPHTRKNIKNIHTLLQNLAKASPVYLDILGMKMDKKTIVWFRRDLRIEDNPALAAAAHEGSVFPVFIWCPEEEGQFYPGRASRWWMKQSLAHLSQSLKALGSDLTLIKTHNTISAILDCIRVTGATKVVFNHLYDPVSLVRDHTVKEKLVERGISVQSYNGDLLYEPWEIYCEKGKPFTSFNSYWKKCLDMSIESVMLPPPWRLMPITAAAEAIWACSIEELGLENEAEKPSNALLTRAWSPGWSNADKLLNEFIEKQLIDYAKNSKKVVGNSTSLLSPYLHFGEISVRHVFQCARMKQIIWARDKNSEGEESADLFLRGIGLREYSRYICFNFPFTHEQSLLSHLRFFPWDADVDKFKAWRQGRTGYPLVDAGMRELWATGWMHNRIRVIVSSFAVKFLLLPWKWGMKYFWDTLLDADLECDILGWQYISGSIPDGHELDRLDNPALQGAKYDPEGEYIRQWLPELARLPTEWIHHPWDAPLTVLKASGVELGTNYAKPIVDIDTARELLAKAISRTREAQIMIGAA

Compound: COC(=O)[C@@]1(O)C[C@H]2O[C@]1(C)n1c3ccccc3c3c4c(c5c6ccccc6n2c5c31)C(=O)NC4 [K252a]
- change of calcium signaling according to light irradiation: no difference
